Assay results from patent publication US9388175B2, “2-aniline-4-aryl substituted thiazole derivatives” (Janssen Pharmaceutica N.V., priority 2005, dated 2016).
Structures can show the parent of a compound that is named as a salt.

Key:
[1] = biological target: T1, hα7-wt nAChR stably expressed in the GH4C1 cell line (Homo sapiens, UniProt P36544); assay: Ca2+ flux imaging (FLIPR) of PAM activity with choline as agonist; assay type: cell-based; settings: efficacy relative to 100 μM choline alone (defined as 1); peak fluorescence, fluo-4AM; compounds tested 0.1 μM to 30 μM, efficacy criterion at 10 μM
T1 construct: expressed in transfected cells
T1 sequence (P36544 23-502): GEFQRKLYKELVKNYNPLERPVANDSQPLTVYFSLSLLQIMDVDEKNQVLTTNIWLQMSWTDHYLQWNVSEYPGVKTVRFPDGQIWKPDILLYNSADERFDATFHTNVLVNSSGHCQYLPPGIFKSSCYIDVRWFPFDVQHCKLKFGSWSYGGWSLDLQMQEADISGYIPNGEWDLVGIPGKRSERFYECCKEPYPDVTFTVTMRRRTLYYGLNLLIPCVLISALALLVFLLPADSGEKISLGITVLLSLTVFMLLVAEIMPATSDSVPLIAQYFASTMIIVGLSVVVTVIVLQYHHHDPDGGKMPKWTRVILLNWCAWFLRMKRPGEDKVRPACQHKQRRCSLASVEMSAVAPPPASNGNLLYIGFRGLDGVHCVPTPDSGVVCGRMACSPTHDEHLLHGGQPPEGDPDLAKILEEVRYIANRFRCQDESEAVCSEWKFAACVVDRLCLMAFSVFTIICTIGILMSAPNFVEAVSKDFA

Row | melting point [°C] | Compound | Activity Range [1]
1 | 186 to 187 | NC(=O)Cc1sc(Nc2cccc(C(F)(F)F)c2)nc1-c1ccccc1 [Compound 1, 2-[4-Phenyl-2-(3-trifluoromethyl-phenylamino)-thiazol-5-yl]-acetamide] | C (C denotes an activity range from 2.0 till 3.0)
2 | 237.2 to 244 | CNC(=O)Cc1sc(Nc2cc(Cl)ccc2Cl)nc1-c1ccncc1 [Compound 163] | E (E denotes an efficacy from at least 4.5)
3 | 248 | Fc1ccc(Nc2nc(-c3cnc4ccccn34)cs2)cc1C(F)(F)F (as salt: HCl) [Compound 9] | 
4 | 126.2 to 126.8 | COc1ccc(Nc2nc(-c3ccncc3)c(CO)s2)cc1 [Compound 122, 2-[(4-methoxyphenyl)amino]-4-(4-pyridinyl)-5-thiazolemethanol] | E (E denotes an efficacy from at least 4.5)
5 | 156.8 to 163.5 | CCOC(=O)Cc1sc(Nc2cc(Cl)ccc2Cl)nc1-c1ccncc1 [int. 30] | E (E denotes an efficacy from at least 4.5)
6 | 175 | Cc1cc(Nc2nc(-c3ccc(Cl)nc3)cs2)ccc1F [Compound 2] | D (D denotes an activity range from 3.0 till 4.5)
7 | 215.5 to 218.9 | O=C(NCc1sc(Nc2cccc(C(F)(F)F)c2)nc1-c1cccnc1)c1ccccc1 [Compound 164] | E (E denotes an efficacy from at least 4.5)
8 | 249.6 to 257.1 | NC(=O)Cc1sc(Nc2cc(Cl)ccc2Cl)nc1-c1ccncc1 [Compound 113, 2-[(2,5-dichlorophenyl)amino]-4-(4-pyridinyl)-5-thiazoleacetamide] | E (E denotes an efficacy from at least 4.5)
9 | 205.3 to 205.8 | COCc1sc(Nc2cc(Cl)ccc2Cl)nc1-c1ccncc1 [Compound 136] | E (E denotes an efficacy from at least 4.5)
10 | 172.8 to 175 | OCc1sc(Nc2cc(Cl)ccc2Cl)nc1-c1ccccc1 [int. 23] | D (D denotes an activity range from 3.0 till 4.5)
11 |  | COCc1sc(Nc2cc(Cl)ccc2Cl)nc1-c1ccccc1 [Compound 98] | E (E denotes an efficacy from at least 4.5)
12 |  | Fc1ccc(Nc2nc(-c3cccnc3)c(Br)s2)cc1C(F)(F)F [Compound 84] | C (C denotes an activity range from 2.0 till 3.0)
13 |  | FC(F)(F)c1cccc(Nc2nc(-c3ccoc3)cs2)c1 [Compound 74] | B (B denotes an activity range from 1.5 till 2.0)
14 |  | Cc1cncc(-c2nc(Nc3cccc(Cl)c3Cl)sc2CO)c1 [Compound 128] | E (E denotes an efficacy from at least 4.5)
15 |  | COCc1nc(Nc2cccc(C(F)(F)F)c2)sc1C(=O)OC [Compound 103] | E (E denotes an efficacy from at least 4.5)
16 |  | Fc1sc(Nc2cccc(C(F)(F)F)c2)nc1-c1cnc2ccccn12 [Compound 80] | C (C denotes an activity range from 2.0 till 3.0)
17 |  | COc1ccc(Nc2nc(-c3cnc4ccccn34)cs2)cc1 [Compound 70] | D (D denotes an activity range from 3.0 till 4.5)
18 |  | CC(C)c1nc(Nc2cccc(C(F)(F)F)c2)sc1CO [Compound 116] | E (E denotes an efficacy from at least 4.5)

Row | melting point [°C] | Compound | Activity Range [1]
19 |  | N#CCc1sc(Nc2cccc(C(F)(F)F)c2)nc1-c1ccc(Cl)cc1Cl [Compound 23, [4-(2,4-Dichloro-phenyl)-2-(3-trifluoromethyl-phenylamino)-thiazol-5-yl]-acetonitrile] | D (D denotes an activity range from 3.0 till 4.5)
20 |  | COc1ccc(-c2csc(Nc3ccc(Cl)cc3Cl)n2)c(OC)c1 [Compound 41] | A (A denotes an activity range from 1.1 till 1.5)
21 |  | Cc1cc(Nc2nc(-c3cccnc3)c(F)s2)ccc1F [Compound 83] | C (C denotes an activity range from 2.0 till 3.0)
22 |  | COc1ccc(Nc2nc(-c3cnc4ccccn34)cs2)c(OC)c1 [Compound 50] | D (D denotes an activity range from 3.0 till 4.5)
23 |  | COC(=O)CCc1sc(Nc2ccc(OC)cc2)nc1-c1ccc(OC)cc1 [Compound 173, 5-Thiazolepropanoic acid, 4-(4-methoxyphenyl)-2-[(4-methoxyphenyl)amino]-, methyl ester] | D (D denotes an activity range from 3.0 till 4.5)
24 |  | CCOC(=O)c1sc(Nc2ccc(OC)cc2)nc1C [Compound 144] | E (E denotes an efficacy from at least 4.5)
25 | 213.6 to 219.8 | CS(=O)(=O)NCc1sc(Nc2cccc(C(F)(F)F)c2)nc1-c1cccnc1 [Compound 109] | E (E denotes an efficacy from at least 4.5)
26 |  | Clc1ccc(Nc2nc(-c3cnc4cnccn34)cs2)cc1 [Compound 75] | C (C denotes an activity range from 2.0 till 3.0)
27 |  | Cc1sc(Nc2ccc(C(F)(F)F)cc2)nc1-c1cccnc1 [Compound 86] | D (D denotes an activity range from 3.0 till 4.5)
28 |  | FC(F)(F)c1ccc(Nc2nc(-c3cccnc3)cs2)cn1 [Compound 65] | C (C denotes an activity range from 2.0 till 3.0)
29 |  | Brc1ccc(Nc2nc(-c3cccnc3)cs2)cn1 [Compound 64] | D (D denotes an activity range from 3.0 till 4.5)
30 |  | COc1cc(OC)c(Nc2nc(-c3ccc4c(c3)OCCO4)c(CO)s2)cc1Cl [int. 19, 2-[(5-chloro-2,4-dimethoxyphenyl)amino]-4-(2,3-dihydro-1,4-benzodioxin-6-yl)-5-thiazolemethanol] | E (E denotes an efficacy from at least 4.5)
31 |  | COc1ccc(OC)c(-c2csc(Nc3cccc4[nH]ncc34)n2)c1 [Compound 34] | C (C denotes an activity range from 2.0 till 3.0)
32 |  | FC(F)(F)c1cccc(Nc2nc(-c3cnc4ccccn34)cs2)c1 [Compound 71] | B (B denotes an activity range from 1.5 till 2.0)
33 |  | Cc1cccc(Nc2nc(-c3cnc4sccn34)cs2)c1 [Compound 59] | B (B denotes an activity range from 1.5 till 2.0)
34 |  | Cc1cc(Nc2nc(-c3cccnc3)cs2)ccc1F [Compound 78] | B (B denotes an activity range from 1.5 till 2.0)
35 |  | CCOC(=O)c1sc(Nc2cccc(C(F)(F)F)c2)nc1C1CCCN(C(=O)OCc2ccccc2)C1 (stereo not shown) [Compound 160] | E (E denotes an efficacy from at least 4.5)
36 |  | Fc1cccc(-c2csc(Nc3cccc(C(F)(F)F)c3)n2)c1 [int. 12] | C (C denotes an activity range from 2.0 till 3.0)
